# Experimental data taken from the NIST ThermoML archive (doi:10.1016/j.tca.2012.07.021).
# ± gives the expanded uncertainty stated by the source.
# How the values were obtained:
# [1] = molar heat capacity at constant pressure; settings: 101.33 kPa, Crystal, Small sample (50 mg) DSC
# [2] = Crystal; DTA
# [3] = Molar enthalpy of transition or fusion; settings: Crystal; DSC
smiles,measurement,setting,value
O.O.O.O.O.O.[Cl-].[Cl-].[Mg+2] [magnesium chloride hexahydrate],molar heat capacity at constant pressure,[1]; 298.15 K,336.4 ± 10 J/K/mol
same,molar heat capacity at constant pressure,[1]; 299.15 K,336.1 ± 10 J/K/mol
same,molar heat capacity at constant pressure,[1]; 300.15 K,336.2 ± 10 J/K/mol
same,molar heat capacity at constant pressure,[1]; 301.15 K,336.7 ± 10 J/K/mol
same,molar heat capacity at constant pressure,[1]; 302.15 K,337.2 ± 10 J/K/mol
same,molar heat capacity at constant pressure,[1]; 303.15 K,337.8 ± 10 J/K/mol
same,molar heat capacity at constant pressure,[1]; 304.15 K,338.3 ± 10 J/K/mol
same,molar heat capacity at constant pressure,[1]; 305.15 K,338.8 ± 10 J/K/mol
same,molar heat capacity at constant pressure,[1]; 306.15 K,339.3 ± 10 J/K/mol
same,molar heat capacity at constant pressure,[1]; 307.15 K,339.8 ± 10 J/K/mol
same,molar heat capacity at constant pressure,[1]; 308.15 K,340.3 ± 10 J/K/mol
same,molar heat capacity at constant pressure,[1]; 309.15 K,340.9 ± 10 J/K/mol
same,molar heat capacity at constant pressure,[1]; 310.15 K,341.4 ± 10 J/K/mol
same,molar heat capacity at constant pressure,[1]; 311.15 K,342 ± 10 J/K/mol
same,molar heat capacity at constant pressure,[1]; 312.15 K,342.5 ± 11 J/K/mol
same,molar heat capacity at constant pressure,[1]; 313.15 K,343 ± 11 J/K/mol
same,molar heat capacity at constant pressure,[1]; 314.15 K,343.5 ± 11 J/K/mol
same,molar heat capacity at constant pressure,[1]; 315.15 K,344.1 ± 11 J/K/mol
same,molar heat capacity at constant pressure,[1]; 316.15 K,344.6 ± 11 J/K/mol
same,molar heat capacity at constant pressure,[1]; 317.15 K,345.2 ± 11 J/K/mol
same,molar heat capacity at constant pressure,[1]; 318.15 K,345.7 ± 11 J/K/mol
same,molar heat capacity at constant pressure,[1]; 319.15 K,346.3 ± 12 J/K/mol
same,molar heat capacity at constant pressure,[1]; 320.15 K,346.9 ± 12 J/K/mol
same,molar heat capacity at constant pressure,[1]; 321.15 K,347.4 ± 12 J/K/mol
same,molar heat capacity at constant pressure,[1]; 322.15 K,348 ± 12 J/K/mol
same,molar heat capacity at constant pressure,[1]; 323.15 K,348.5 ± 12 J/K/mol
same,molar heat capacity at constant pressure,[1]; 324.15 K,349.1 ± 13 J/K/mol
same,molar heat capacity at constant pressure,[1]; 325.15 K,349.6 ± 13 J/K/mol
same,molar heat capacity at constant pressure,[1]; 326.15 K,350.1 ± 13 J/K/mol
same,molar heat capacity at constant pressure,[1]; 327.15 K,350.7 ± 13 J/K/mol
same,molar heat capacity at constant pressure,[1]; 328.15 K,351.3 ± 14 J/K/mol
same,molar heat capacity at constant pressure,[1]; 329.15 K,351.8 ± 14 J/K/mol
same,molar heat capacity at constant pressure,[1]; 330.15 K,352.4 ± 14 J/K/mol
same,molar heat capacity at constant pressure,[1]; 331.15 K,353 ± 15 J/K/mol
same,molar heat capacity at constant pressure,[1]; 332.15 K,353.6 ± 15 J/K/mol
same,molar heat capacity at constant pressure,[1]; 333.15 K,354.2 ± 15 J/K/mol
same,molar heat capacity at constant pressure,[1]; 334.15 K,354.8 ± 16 J/K/mol
same,molar heat capacity at constant pressure,[1]; 335.15 K,355.4 ± 16 J/K/mol
same,molar heat capacity at constant pressure,[1]; 336.15 K,355.9 ± 16 J/K/mol
same,molar heat capacity at constant pressure,[1]; 337.15 K,356.5 ± 17 J/K/mol
same,molar heat capacity at constant pressure,[1]; 338.15 K,357.1 ± 17 J/K/mol
same,molar heat capacity at constant pressure,[1]; 339.15 K,357.8 ± 17 J/K/mol
same,molar heat capacity at constant pressure,[1]; 340.15 K,358.4 ± 17 J/K/mol
same,molar heat capacity at constant pressure,[1]; 341.15 K,359.1 ± 18 J/K/mol
same,molar heat capacity at constant pressure,[1]; 342.15 K,359.7 ± 18 J/K/mol
same,molar heat capacity at constant pressure,[1]; 343.15 K,360.3 ± 18 J/K/mol
same,molar heat capacity at constant pressure,[1]; 344.15 K,360.9 ± 19 J/K/mol
same,molar heat capacity at constant pressure,[1]; 345.15 K,361.5 ± 19 J/K/mol
same,molar heat capacity at constant pressure,[1]; 346.15 K,362.2 ± 19 J/K/mol
same,molar heat capacity at constant pressure,[1]; 347.15 K,362.9 ± 20 J/K/mol
same,molar heat capacity at constant pressure,[1]; 348.15 K,363.6 ± 20 J/K/mol
same,molar heat capacity at constant pressure,[1]; 349.15 K,364.3 ± 21 J/K/mol
same,molar heat capacity at constant pressure,[1]; 350.15 K,365 ± 21 J/K/mol
same,molar heat capacity at constant pressure,[1]; 351.15 K,365.6 ± 21 J/K/mol
same,molar heat capacity at constant pressure,[1]; 352.15 K,366.3 ± 22 J/K/mol
same,molar heat capacity at constant pressure,[1]; 353.15 K,367 ± 22 J/K/mol
same,molar heat capacity at constant pressure,[1]; 354.15 K,367.8 ± 23 J/K/mol
same,molar heat capacity at constant pressure,[1]; 355.15 K,368.6 ± 23 J/K/mol
same,molar heat capacity at constant pressure,[1]; 356.15 K,369.3 ± 24 J/K/mol
same,molar heat capacity at constant pressure,[1]; 357.15 K,370.1 ± 24 J/K/mol
same,molar heat capacity at constant pressure,[1]; 358.15 K,370.8 ± 25 J/K/mol
same,molar heat capacity at constant pressure,[1]; 359.15 K,371.7 ± 25 J/K/mol
same,molar heat capacity at constant pressure,[1]; 360.15 K,372.4 ± 25 J/K/mol
same,molar heat capacity at constant pressure,[1]; 361.15 K,373.3 ± 26 J/K/mol
same,molar heat capacity at constant pressure,[1]; 362.15 K,374.2 ± 27 J/K/mol
same,molar heat capacity at constant pressure,[1]; 363.15 K,375.1 ± 27 J/K/mol
same,molar heat capacity at constant pressure,[1]; 364.15 K,376 ± 27 J/K/mol
same,molar heat capacity at constant pressure,[1]; 365.15 K,377 ± 28 J/K/mol
same,molar heat capacity at constant pressure,[1]; 366.15 K,377.9 ± 28 J/K/mol
same,molar heat capacity at constant pressure,[1]; 367.15 K,379 ± 29 J/K/mol
same,molar heat capacity at constant pressure,[1]; 368.15 K,380 ± 30 J/K/mol
same,molar heat capacity at constant pressure,[1]; 369.15 K,381.1 ± 30 J/K/mol
same,molar heat capacity at constant pressure,[1]; 370.15 K,382.1 ± 31 J/K/mol
same,molar heat capacity at constant pressure,[1]; 371.15 K,383.3 ± 32 J/K/mol
same,molar heat capacity at constant pressure,[1]; 372.15 K,384.4 ± 32 J/K/mol
same,molar heat capacity at constant pressure,[1]; 373.15 K,385.6 ± 33 J/K/mol
same,molar heat capacity at constant pressure,[1]; 374.15 K,386.8 ± 34 J/K/mol
same,molar heat capacity at constant pressure,[1]; 375.15 K,388.1 ± 35 J/K/mol
same,molar heat capacity at constant pressure,[1]; 376.15 K,389.3 ± 36 J/K/mol
same,molar heat capacity at constant pressure,[1]; 377.15 K,390.6 ± 37 J/K/mol
same,molar heat capacity at constant pressure,[1]; 378.15 K,392 ± 38 J/K/mol
same,molar heat capacity at constant pressure,[1]; 379.15 K,393.4 ± 39 J/K/mol
same,molar heat capacity at constant pressure,[1]; 380.15 K,394.9 ± 40 J/K/mol
same,molar heat capacity at constant pressure,[1]; 381.15 K,396.4 ± 41 J/K/mol
same,molar heat capacity at constant pressure,[1]; 382.15 K,397.8 ± 42 J/K/mol
same,molar heat capacity at constant pressure,[1]; 383.15 K,399.4 ± 44 J/K/mol
same,molar heat capacity at constant pressure,[1]; 384.15 K,401.3 ± 46 J/K/mol
same,molar heat capacity at constant pressure,[1]; 385.15 K,403.3 ± 48 J/K/mol
same,molar heat capacity at constant pressure,[1]; 386.15 K,405.5 ± 50 J/K/mol
same,molar heat capacity at constant pressure,[1]; 387.15 K,409.7 ± 54 J/K/mol
same,molar heat capacity at constant pressure,[1]; 388.15 K,418.7 ± 59 J/K/mol
same,molar heat capacity at constant pressure,[1]; 389.15 K,451.6 ± 77 J/K/mol
same,Normal melting temperature,[2],117.5 ± 0.4 °C
same,Molar enthalpy of transition or fusion,[3],8.21 ± 0.179 kcal/mol
